Measured values: patent publication EP4603105A1, “PHARMACEUTICAL COMPOSITION CONTAINING CYCLIC COMPOUND HAVING SELECTIVE KRAS INHIBITORY EFFECT AGAINST HRAS AND NRAS” (CHUGAI SEIYAKU KABUSHIKI KAISHA, priority 2022, dated 2024)
pIC50: −log10 of the molar value. Where a SMILES comes first, the peptide text is derived from it. Bridges are numbered along the chain shown (N, C = ends). [ ]: non-standard residue; d: D form. The star is where a group is joined. hPhe(3-Cl-4-CF3) = N[C@@H](CCc1ccc(C(F)(F)F)c(Cl)c1)C(=O)O; NPrPhe(4-CF3) = CCCN[C@@H](Cc1ccc(C(F)(F)F)cc1)C(=O)O; NMeGly(cPent) = CN[C@H](C(=O)O)C1CCCC1; Ac4c(3,3-Me2) = CC1(C)CC(N)(C(=O)O)C1; NMeD = CN[C@@H](CC(=O)O)C(=O)O; NMeL = CN[C@@H](CC(C)C)C(=O)O; Morpholide = C1CN(*)CCO1; Sar = CNCC(=O)O

How the values were obtained:
[1] = target: GDP-bound NRAS wild-type protein (Homo sapiens, UniProt P01111); assay: Binding to NRAS by surface plasmon resonance (SPR), KD and KD ratio to KRAS
Outline: (§1)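 Each cycle, GDP-bound biotin-Avi RAS was captured (~100–300 RU), compound concentrations were injected low to high for 75 s each at 100 µL/min, then the chip was regenerated. Buffer: HBS pH 7.4, 10 mM MgCl2, 10 µM GDP, 1 mM DTT, 4% DMSO; 30°C. KD from a 1:1 binding model.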

HRAS wild-type protein = HRAS wild-type protein (Homo sapiens, UniProt P01112); assay: Binding to HRAS by surface plasmon resonance (SPR), KD and KD ratio to KRAS
Outline: as §1

[2] = system: human lung cancer strain NCI-H441; type: cell-based
Outline: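 Signal came from […] measured per well once the reagent was added. Beforehand, cells were cultured at 37°C and 5% carbon dioxide on a compound series serially diluted in dimethyl sulfoxide.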

[3] = ratio of the KD value with respect to GDP-bound NRAS wild-type protein to the KD value with respect to KRAS
[4] = ratio of the KD value with respect to HRAS wild-type protein to the KD value with respect to KRAS
[5] = ratio of KD for GDP-bound NRAS wild-type protein to KD for KRAS
[6] = ratio of KD for HRAS wild-type protein to KD for KRAS

Sequence of GDP-bound NRAS wild-type protein (P01111 whole entry): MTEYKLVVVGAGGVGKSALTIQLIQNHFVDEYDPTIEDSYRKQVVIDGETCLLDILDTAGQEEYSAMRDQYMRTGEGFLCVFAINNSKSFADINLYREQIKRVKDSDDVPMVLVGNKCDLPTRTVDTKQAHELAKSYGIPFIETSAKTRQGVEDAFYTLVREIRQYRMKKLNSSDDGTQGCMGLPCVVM
Sequence of HRAS wild-type protein (P01112 whole entry): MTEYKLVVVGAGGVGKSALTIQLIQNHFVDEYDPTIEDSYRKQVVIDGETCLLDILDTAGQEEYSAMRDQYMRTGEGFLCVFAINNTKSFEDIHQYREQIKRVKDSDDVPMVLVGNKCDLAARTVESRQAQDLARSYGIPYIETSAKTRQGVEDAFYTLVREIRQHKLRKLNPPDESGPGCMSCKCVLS

Row | pIC50 [2] | Compound | NRAS /KRAS ([1]; ratio of KD value for GDP-bound NRAS wild-type protein to KD value for KRAS (SPR)) | HRAS /KRAS (HRAS wild-type protein; ratio of KD value for HRAS wild-type protein to KD value for KRAS (SPR)) | NRAS /KRAS [1, 3] | HRAS /KRAS (HRAS wild-type protein; [4]) | NRAS /KRAS [1, 5] | HRAS /KRAS (HRAS wild-type protein; [6])
1 | 7.84 | CC[C@H](C)[C@@H]1NC(=O)[C@H](CC)N(C)C(=O)C[C@@H](C(=O)N(C)C)N(C)C(=O)[C@H](C2CCCC2)N(C)C(=O)C2(CCCC2)N(C)C(=O)[C@@H]2CCCN2C(=O)[C@H](CCc2cc(F)c(C(F)(F)F)c(F)c2)NC(=O)CN(C)C(=O)[C@H](Cc2ccc(C)cc2)N2CC/C=C\C[C@@H](C2=O)N(C)C(=O)[C@@H]2CCCN2C1=O [PP1811] | A (a compound having 10 or more and less than 20 is denoted as A) | B (a compound having 3 or more and less than 10 is denoted as B) |  |  |  | 
2 | 8.04 | CCCN1C(=O)CN(C)C(=O)CN(C)C(=O)[C@H]([C@@H](C)OC)NC(=O)[C@H](CC(C)C)N(C)C(=O)C[C@@H](C(=O)N2CCOCC2)N(C)C(=O)[C@H](C2CCCC2)N(C)C(=O)C2(CC(C)(C)C2)NC(=O)[C@@H]2CCCN2C(=O)[C@H](CCc2ccc(C(F)(F)F)c(Cl)c2)NC(=O)CN(C)C(=O)[C@@H]1Cc1ccc(C(F)(F)F)cc1 [PP1963] ([NMeL]T(Me)[Sar][Sar][NPrPhe(4-CF3)][Sar][hPhe(3-Cl-4-CF3)]P[Ac4c(3,3-Me2)][NMeGly(cPent)][NMeD]-Morpholide; lactam N-11) |  |  | B (a compound having 3 or more and less than 10 is denoted as B) | C (A compound having a KD ratio of 0.1 or more and less than 3 is denoted as C) |  | 
3 | 6.82 | CCO[C@@H]1C[C@H]2C(=O)NC3(CCCC3)C(=O)N(C)[C@@H](C3CCCC3)C(=O)N(C)[C@H](C(=O)N(C)C)CC(=O)N(C)[C@@H](CC)C(=O)N[C@@H]([C@@H](C)CC)C(=O)N(C)CC(=O)N(C)[C@H]3CC(C)=CCN(C3=O)[C@@H](Cc3ccc(C(F)(F)F)cc3)C(=O)N(C)CC(=O)N[C@@H](CCc3cc(F)c(C(F)(F)F)c(F)c3)C(=O)N2C1 [PP1036] |  |  |  |  | C (A compound having a KD ratio of 0.1 or more and less than 3 is denoted as C) | C (A compound having a KD ratio of 0.1 or more and less than 3 is denoted as C)
4 | 7.82 | CC[C@H](C)[C@@H]1NC(=O)[C@H](CC(C)C)N(C)C(=O)C[C@@H](C(=O)N2CCOCC2)N(C)C(=O)[C@H](C2CCCC2)N(C)C(=O)C2(CCCC2)NC(=O)[C@@H]2CCCN2C(=O)[C@H](CCc2ccc(C(F)(F)F)c(Cl)c2)NC(=O)CN(C)C(=O)[C@H](Cc2ccc(C(F)(F)F)cc2)N2CC=CC[C@@H](C2=O)N(C)C(=O)CN(C)C1=O [PP0462] |  |  | C (A compound having a KD ratio of 0.1 or more and less than 3 is denoted as C) | C (A compound having a KD ratio of 0.1 or more and less than 3 is denoted as C) |  | 
5 | 7.27 | CC[C@H](C)[C@@H]1NC(=O)[C@H](CC)N(C)C(=O)C[C@@H](C(=O)N2CCOCC2)N(C)C(=O)[C@H](C2CCCC2)N(C)C(=O)C2(CCCC2)NC(=O)[C@@H]2CCCN2C(=O)[C@H](CCc2cc(F)c(C(F)(F)F)c(F)c2)NC(=O)CN(C)C(=O)[C@H](Cc2ccc(C(F)(F)F)cc2)N2CCCCC[C@@H](C2=O)N(C)C(=O)CN(C)C1=O [PP0488] |  |  | A (a compound having 10 or more and less than 20 is denoted as A) | B (a compound having 3 or more and less than 10 is denoted as B) |  | 
6 | 7.04 | CC[C@H](C)[C@@H]1NC(=O)[C@H](C(C)C)N(C)C(=O)C[C@@H](C(=O)N(C)CC)N(C)C(=O)[C@H](C2CCCC2)N(C)C(=O)C2(CC(C)(C)C2)NC(=O)[C@@H]2C[C@H](C)CN2C(=O)[C@H](CCc2cc(F)c(C(F)(F)F)c(F)c2)NC(=O)CN(C)C(=O)[C@H](Cc2ccc(C(F)(F)F)cc2)N2CC/C=C\C[C@@H](C2=O)N(C)C(=O)CN(C)C1=O [PP1976] |  |  | AA (a compound having 20 or more is denoted as AA) | A (a compound having 10 or more and less than 20 is denoted as A) |  | 
7 | 7.66 | CCO[C@@H]1C[C@H]2C(=O)NC3(CCC3)C(=O)N(C)[C@@H](C3CCCC3)C(=O)N(C)[C@H](C(=O)N3CCOCC3)CC(=O)N(C)[C@@H](CC(F)F)C(=O)N[C@@H]([C@@H](C)CC)C(=O)N(C)CC(=O)N(C)[C@H]3CCCCCN(C3=O)[C@@H](Cc3ccc(C(F)(F)F)cc3)C(=O)N(C)CC(=O)N[C@@H](CCc3cc(F)c(C(F)(F)F)c(F)c3)C(=O)N2C1 [PP0854] |  |  |  |  | B (a compound having 3 or more and less than 10 is denoted as B) | B (a compound having 3 or more and less than 10 is denoted as B)
